Patent US20250368647A1, “NITROGEN CONTAINING CONDENSED 2,3-DIHYDROQUINAZOLINONE COMPOUNDS AS NAV1.8 INHIBITORS” (GLAXOSMITHKLINE INTELLECTUAL PROPERTY DEVELOPMENT LIMITED, priority 2022, published 2025)

Target: human Nav1.8 (Homo sapiens (Human), UniProt Q9Y5Y9)
Assay: QPatch 48 HTX voltage-clamp electrophysiology, half inactivation state (V1/2) protocol, HEK293-Nav1.8 cells
Type: cell-based
Conditions: HEK293 cells expressing human Nav1.8, human Navβ1 and human TREK1, P2 current
Procedure: Human embryonic kidney 293 cells (HEK293) expressing human Nav1.8, human Navβ1 and human TREK1 (HEK293-Nav1.8) were grown in T150 cell culture flasks at 37° C., 5% CO2 incubator. HEK293-Nav1.8 were passaged every 2-3 days when confluency reached 80-90% in T150 cell culture flasks.
Pharmacological assessment of compounds of the invention was performed using the QPatch 48 HTX electrophysiological platform. HEK293-Nav1.8 cells were prepared on the day of use by removing culture media, washing in DPBS, adding Accutase (2 mL to cover the surface, aspirate 1 mL then 1-2 minutes at 37° C.) followed by addition of CHO-SFM II to stop the enzyme digestion and in order to obtain a suspension of 3×10^6 cell/mL.
Compounds of the invention were prepared in an extracellular solution of the following composition: NaCl (145 mM), KCl (4 mM), CaCl2) (2 mM), MgCl (2 mM), HEPES (1 mM), Glucose (10 mM), pH 7.4 with NaOH Osmolality 300 mOsM/L. An intracellular solution of the following composition was used: CsF (115 mM), CsCl (20 mM), NaCl (5 mM), EGTA (10 mM), HEPES (10 mM), Sucrose (20 mM), pH 7.2 with CsOH Osmolality 310 mOsm/L.
Utilizing the voltage-clamp mode in the QPatch 48 HTX system a half inactivation state voltage protocol (V1/2) was used to determine pharmacological activity of compounds of the invention at Nav1.8 ion channels. A V1/2 protocol was utilized with the following voltage steps: a holding voltage of −100 mV was established followed by a 20 ms voltage step to 0 mV (P1), followed by an inactivating voltage step at −46 mV for 8 seconds, followed by a step to −100 mV for 20 ms, before a 20 ms step to 0 mV (P2), then returned to the holding voltage of −100 mV. This voltage protocol was repeated at a frequency of every 15 seconds, the current magnitude was quantified at the P2 step throughout the recording. Inhibition of the measured current amplitude with compounds of the invention was analyzed by fitting a 4-6 points dose-response curve allowing determination of the fifty percent inhibition concentration (IC50). P2 currents were normalized according to measurements made at baseline (Baseline, vehicle only), after compound (Input, at each test concentration), and after positive reference compound (FullResponse, to achieve complete block), fit to the following equation: […]
To assess current run-down over the course of the experiment vehicle-only wells were utilized and the normalized current with vehicle-only (n.IVEH) was determined. To correct the compound response for run-down, the currents were corrected according to the following formula: […]
Compound inhibition was fitted to the following Hill Equation to estimate the half maximal inhibition concentration (IC50)
[formula] • where Y is the normalized run-down corrected inhibition relative to the vehicle control (equivalent to n.IRD_Correct), C the test compound concentration, IC50 the concentration of test compound to inhibit the sodium current by 50%, and h the Hill coefficient.

human Nav1.8, sequence (Q9Y5Y9 whole entry): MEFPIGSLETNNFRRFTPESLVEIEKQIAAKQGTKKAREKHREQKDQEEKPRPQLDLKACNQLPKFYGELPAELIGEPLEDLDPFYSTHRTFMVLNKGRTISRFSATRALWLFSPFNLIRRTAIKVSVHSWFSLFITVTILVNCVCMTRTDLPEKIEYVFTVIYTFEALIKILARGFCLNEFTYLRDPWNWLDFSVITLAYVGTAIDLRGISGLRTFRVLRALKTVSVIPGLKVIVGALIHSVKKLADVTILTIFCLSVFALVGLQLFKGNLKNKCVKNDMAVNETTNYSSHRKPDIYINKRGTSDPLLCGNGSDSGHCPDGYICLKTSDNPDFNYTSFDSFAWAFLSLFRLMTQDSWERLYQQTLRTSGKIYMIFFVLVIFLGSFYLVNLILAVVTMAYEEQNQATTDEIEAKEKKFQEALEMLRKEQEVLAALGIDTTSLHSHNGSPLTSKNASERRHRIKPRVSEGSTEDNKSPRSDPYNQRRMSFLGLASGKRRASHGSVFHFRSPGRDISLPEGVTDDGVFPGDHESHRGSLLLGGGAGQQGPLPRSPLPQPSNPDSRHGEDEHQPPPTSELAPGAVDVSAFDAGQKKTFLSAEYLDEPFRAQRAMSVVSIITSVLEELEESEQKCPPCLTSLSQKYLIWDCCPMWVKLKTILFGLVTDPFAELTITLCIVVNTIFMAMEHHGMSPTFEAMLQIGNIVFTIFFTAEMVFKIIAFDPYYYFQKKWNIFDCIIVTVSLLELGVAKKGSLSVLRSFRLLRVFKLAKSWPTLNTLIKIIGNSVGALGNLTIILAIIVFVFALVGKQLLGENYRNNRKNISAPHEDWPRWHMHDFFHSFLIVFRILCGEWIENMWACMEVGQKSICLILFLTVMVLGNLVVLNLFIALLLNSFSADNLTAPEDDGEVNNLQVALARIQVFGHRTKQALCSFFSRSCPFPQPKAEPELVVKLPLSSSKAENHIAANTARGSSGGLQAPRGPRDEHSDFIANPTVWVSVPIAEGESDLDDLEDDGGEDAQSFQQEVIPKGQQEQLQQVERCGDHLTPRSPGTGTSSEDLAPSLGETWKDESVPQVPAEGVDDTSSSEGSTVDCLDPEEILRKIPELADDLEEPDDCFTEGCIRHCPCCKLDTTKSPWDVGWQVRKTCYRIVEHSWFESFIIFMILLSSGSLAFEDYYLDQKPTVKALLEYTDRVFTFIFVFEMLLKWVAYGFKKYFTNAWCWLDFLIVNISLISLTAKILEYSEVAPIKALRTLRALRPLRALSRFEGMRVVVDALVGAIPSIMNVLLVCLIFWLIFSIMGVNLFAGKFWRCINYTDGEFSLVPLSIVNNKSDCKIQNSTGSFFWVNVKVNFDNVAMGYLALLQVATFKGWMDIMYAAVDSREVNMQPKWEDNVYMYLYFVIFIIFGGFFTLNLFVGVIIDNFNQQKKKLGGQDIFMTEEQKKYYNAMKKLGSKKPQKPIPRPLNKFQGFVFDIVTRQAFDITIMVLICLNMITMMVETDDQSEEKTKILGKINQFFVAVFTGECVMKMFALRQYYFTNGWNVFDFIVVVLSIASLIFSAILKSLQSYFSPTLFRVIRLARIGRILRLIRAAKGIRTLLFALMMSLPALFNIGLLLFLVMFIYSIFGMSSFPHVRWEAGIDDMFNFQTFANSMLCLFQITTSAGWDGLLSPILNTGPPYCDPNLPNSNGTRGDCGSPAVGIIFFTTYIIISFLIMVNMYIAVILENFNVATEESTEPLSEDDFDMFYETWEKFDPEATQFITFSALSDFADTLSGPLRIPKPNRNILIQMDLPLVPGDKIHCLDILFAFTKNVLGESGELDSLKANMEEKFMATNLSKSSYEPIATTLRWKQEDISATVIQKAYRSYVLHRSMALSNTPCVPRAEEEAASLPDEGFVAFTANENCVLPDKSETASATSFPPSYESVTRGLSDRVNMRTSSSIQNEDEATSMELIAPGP
human Nav1.8, sequence (Q07699 19-218 partner): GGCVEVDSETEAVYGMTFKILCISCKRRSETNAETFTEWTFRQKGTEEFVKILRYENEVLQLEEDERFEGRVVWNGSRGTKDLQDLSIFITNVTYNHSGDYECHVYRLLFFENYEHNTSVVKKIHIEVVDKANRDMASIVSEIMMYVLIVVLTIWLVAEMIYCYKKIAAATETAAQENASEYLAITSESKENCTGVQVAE

| SMILES | Nav1.8, pIC50 |
| --- | --- |
| O=C1c2cc(C(F)(F)F)ccc2N2CN1c1ccc(=O)[nH]c1CCCOc1cc(F)ccc12 [Example 16, 8-Fluoro-2-(trifluoromethyl)-12,13-dihydro-11H,19H-5,18-methanodibenzo[b,e]pyrido[3,2-i][1]oxa[4,8]diazacyclotridecine-15,19(14H)-dione] | 6.0 |
| O=C1c2cc(C(F)(F)F)cnc2N2CN1c1ccc(=O)[nH]c1CCCCc1cc(OC(F)(F)F)ccc12 [Example 17, 8-(Trifluoromethoxy)-2-(trifluoromethyl)-10,11,12,13-tetahydro-19H,19H-5,18-methano-dibenzo[l]pyrido[2,3-b:3′,2′-f][1,5]diazacyclotridecine-15,19(14H)-dione] | 6.1 |
| O=C1c2ccc(C(F)(F)F)cc2N2CN1c1ccc(=O)[nH]c1CCCCOc1cc(F)ccc12 [Example 18, 3^4-Fluoro-2^7-(trifluoromethyl)-1^1,1^2,2^1,2^2,2^3,2^4-hexahydro-4-oxa-2(3,1)-quinazolina-1(5,6)-pyridina-3(1,2)-benzenacyclooctaphane-1^2,2^4-dione] | 6.5 |
| O=C1c2cc(Cl)cnc2N2CN1c1ccc(=O)[nH]c1CCCCCc1cc(F)ccc12 [Example 20, 2^6-Chloro-3^4-fluoro-1^1,1^2,2^1,2^2,2^3,2^4-hexahydro-2(3,1)-pyrido[2,3-d]pyrimidina-1(5,6)-pyridina-3(1,2)-benzenacyclooctaphane-1^2,2^4-dione] | 7.2 |
| O=C1c2cc(C(F)(F)F)ncc2N2CN1c1ccc(=O)[nH]c1CCCCCc1cc(F)ccc12 [Example 21, 3^4-Fluoro-2^6-(trifluoromethyl)-1^1,1^2,2^1,2^2,2^3,2^4-hexahydro-2(3,1)-pyrido[3,4-d]pyrimidina-1(5,6)-pyridina-3(1,2)-benzenacyclooctaphane-1^2,2^4-dione] | 7.6 |
| O=C1c2ccc(C(F)(F)F)nc2N2CN1c1ccc(=O)[nH]c1CCCCCc1cc(F)ccc12 [Example 22, 3^4-Fluoro-2^7-(trifluoromethyl)-1^1,1^2,2^1,2^2,2^3,2^4-hexahydro-2(3,1)-pyrido[2,3-d]pyrimidina-1(5,6)-pyridina-3(1,2)-benzenacyclooctaphane-1^2,2^4-dione] | 7.6 |
| O=C1c2cc(C(F)(F)F)cnc2N2CN1c1ccc(=O)[nH]c1CCCCCc1cc(F)ccc12 [Example 23, 3^4-Fluoro-2^6-(trifluoromethyl)-1^1,1^2,2^1,2^2,2^3,2^4-hexahydro-2(3,1)-pyrido[2,3-d]pyrimidina-1(5,6)-pyridina-3(1,2)-benzenacyclooctaphane-1^2,2^4-dione] | 7.2 |
| O=C1c2cc(C(F)(F)F)cnc2N2CN1c1ccc(=O)[nH]c1CC/C=C\Cc1cc(F)ccc12 [Example 24, 3^4-Fluoro-2^6-(trifluoromethyl)-1^1,1^2,2^1,2^2,2^3,2^4-hexahydro-2(3,1)-pyrido[2,3-d]pyrimidina-1(5,6)-pyridina-3(1,2)-benzenacyclooctaphan-5-ene-1^2,2^4-dione] | 7.7 |
| O=C1c2cc(C(F)(F)F)ccc2N2CN1c1ccc(=O)[nH]c1CCCCNc1cc(F)ccc12 [Example 25, 3^4-Fluoro-2^6-(trifluoromethyl)-1^1,1^2,2^1,2^2,2^3,2^4-hexahydro-4-aza-2(3,1)-quinazolina-1(5,6)-pyridina-3(1,2)-benzenacyclooctaphan-1^2,2^4-dione] | 6.2 |

Next, values leading:

| Nav1.8, pIC50 | SMILES |
| --- | --- |
| 8.3 | O=C1c2cc(C(F)(F)F)ccc2N2CN1c1cc[n+]([O-])cc1CCCCCc1cc(F)ccc12 [Example 26, 3^4-Fluoro-2^4-oxo-2^6-(trifluoromethyl)-2^1,2^2,2^3,2^4-tetrahydro-2(3,1)-quinazolina-1(4,3)-pyridin-1-iuma-3(1,2)-benzenacyclooctaphan-1-oxide] |
| 7.8 | O=C1c2cc(C(F)(F)F)ccc2N2CN1c1ccc(=O)[nH]c1NCCCc1cc(F)ccc12 [Example 27, 8-Fluoro-2-(trifluoromethyl)-10,11,12,13-tetrahydro-19H-5,18-methanodibenzo[f,i]pyrido[2,3-b][1,4,8]triazocyclotridecine-15,19(14H)-dione] |
| 7.5 | O=C1c2ccc(C(F)(F)F)cc2N2CN1c1ccc(=O)[nH]c1NCCCc1cc(F)ccc12 [Example 28, 8-Fluoro-3-(trifluoromethyl)-10,11,12,13-tetrahydro-19H-5,18-methanodibenzo[f,i]pyrido[2,3-b][1,4,8]triazocyclotridecine-15,19(14H)-dione] |
| 7.1 | O=C1c2cc(C(F)(F)F)ccc2N2CN1c1cc(Cl)c(=O)[nH]c1NCCCc1cc(F)ccc12 [Example 29, 16-Chloro-8-fluoro-2-(trifluoromethyl)-10,11,12,13-tetrahydro-19H-5,18-methanodibenzo[f,i]pyrido[2,3,-b][1,4,8]triazacyclotridecine-15,19(14H)-dione] |
| 6.9 | CN1CCCc2cc(F)ccc2N2CN(C(=O)c3cc(C(F)(F)F)ccc32)c2ccc(=O)[nH]c21 [Example 30, 8-Fluoro-13-methyl-2-(trifluoromethyl)-10,11,12,13-tetrahydro-19H-5,18-methanodibenzo[f,i]pyrido[2,3,-b][1,4,8]triazacyclotridecine-15,19(14H)-dione] |
| 7.5 | O=C1c2cc(OC(F)(F)F)ccc2N2CN1c1ccc(=O)[nH]c1NCCCc1cc(F)ccc12 [Example 31, 8-Fluoro-2-(trifluoromethoxy)-10,11,12,13-tetrahydro-19H-5,18-methanodibenzo[f,i]pyrido[2,3,-b][1,4,8]triazacyclotridecine-15,19(14H)-dione] |
| 8.4 | O=C1c2cc(F)c(C(F)(F)F)cc2N2CN1c1ccc(=O)[nH]c1NCCCc1cc(F)ccc12 [Example 32, 2,8-Difluoro-3-(trifluoromethyl)-10,11,12,13-tetrahydro-19H-5,18-methanodibenzo[f,i]pyrido[2,3,-b][1,4,8]triazacyclotridecine-15,19(14H)-dione] |
| 7.5 | O=C1c2c(ccc(C(F)(F)F)c2F)N2CN1c1ccc(=O)[nH]c1NCCCc1cc(F)ccc12 [Example 33, 1,8-Difluoro-2-(trifluoromethyl)-10,11,12,13-tetrahydro-19H-5,18-methanodibenzo[f,i]pyrido[2,3,-b][1,4,8]triazacyclotridecine-15,19(14H)-dione] |
| 6.4 | O=C1c2cc(C(F)(F)F)cnc2N2CN1c1ccc(=O)[nH]c1NCCCc1cc(F)ccc12 [Example 34, 8-Fluoro-2-(trifluoromethyl)-10,11,12,13-tetrahydro-19H-5,18-methanodibenzo[i]dipyrido[2,3,-b:3′,2′-f][1,4,8]triazacyclotridecine-15,19(14H)-dione] |
| 6.9 | O=C1c2cc(C(F)(F)F)ncc2N2CN1c1ccc(=O)[nH]c1NCCCc1cc(F)ccc12 [Example 35, 8-Fluoro-2-(trifluoromethyl)-10,11,12,13-tetrahydro-19H-5,18-methanodibenzo[i]dipyrido[2,3,-b:4′,3′-f][1,4,8]triazacyclotridecine-15,19(14H)-dione] |
| 6.6 | O=C1c2cnc(C(F)(F)F)cc2N2CN1c1ccc(=O)[nH]c1NCCCc1cc(F)ccc12 [Example 36, 8-Fluoro-3-(trifluoromethyl)-10,11,12,13-tetrahydro-19H-5,18-methanodibenzo[i]dipyrido[2,3,-b:3′,4′-f][1,4,8]triazacyclotridecine-15,19(14H)-dione] |
